Data from PMC8335354 (Biology of Reproduction, 2021).
Entries after “also recorded” stand apart in the source; their conditions may differ.

Assays:
[1] = test system: mouse SCNT-derived embryos; assay: In vivo development of SCNT-derived embryos, two-cell transfer; settings: for No. of implantations / No. of offspring / No. of placentas only / implantations (%) / offspring (%) / placentas only (%): 8 h treatment, two-cell transfer
[2] = test system: mouse SCNT-derived embryos; assay: In vivo development of SCNT-derived embryos, morula/blastocyst transfer; settings: 8 h treatment
[3] = test system: parthenogenetic embryos (zygotic gene activation); assay: Transcriptional activity; type: cell-based, mouse; settings: 2 mM EU from 5 h to 24 h after activation
[4] = test system: mouse SCNT-derived embryos; assay: In vitro development of SCNT-derived embryos treated with HDAC inhibitors; type: cell-based
[5] = test system: pups derived from HDAC inhibitor-treated SCNT-derived embryos; assay: Body and placental weights of cloned pups at term; type: in vivo, mouse; settings: 19.5 dpc, mean ± SD
[6] = test system: mouse SCNT-derived embryos; settings: cited from earlier work
[7] = inhibitor treatment 8 h, Table 4

O=C(CCCCC[C@@H]1NC(=O)[C@H]2CCCN2C(=O)[C@@H]2CCCCCCCCCC[C@@H](NC1=O)C(=O)N2)NO [Ky-309]
No. of implantations ([1]; 0.5 nM): 32
No. of offspring ([1]; 0.5 nM): 1
No. of placentas only ([1]; 0.5 nM): 0 (0)
implantations (%) ([1]; 0.5 nM): 38.1%
offspring (%) ([1]; 0.5 nM): 1.2%
placentas only (%) ([1]; 0.5 nM): 0 (0) %
No. of implantations ([1]; 1 nM): 21
No. of offspring ([1]; 1 nM): 0 (0)
No. of placentas only ([1]; 1 nM): 0 (0)
implantations (%) ([1]; 1 nM): 30.9%
offspring (%) ([1]; 1 nM): 0 (0) %
placentas only (%) ([1]; 1 nM): 0 (0) %
No. of implantations ([1]; 5 nM): 33
No. of offspring ([1]; 5 nM): 1
No. of placentas only ([1]; 5 nM): 2
implantations (%) ([1]; 5 nM): 50.0%
offspring (%) ([1]; 5 nM): 1.5%
placentas only (%) ([1]; 5 nM): 3.0%
No. of cloned offspring ([2]; 5 nM): 0 (0)
No. of implantations ([2]; 5 nM): 4
No. of placentas only ([2]; 5 nM): 0 (0)
cloned offspring (%) ([2]; 5 nM): 0 (0) %
implantations (%) ([2]; 5 nM): 19.0%
placentas only (%) ([2]; 5 nM): 0 (0) %
No. of cloned offspring ([2]; 100 nM): 1
No. of implantations ([2]; 100 nM): 4
No. of placentas only ([2]; 100 nM): 1
cloned offspring (%) ([2]; 100 nM): 16.7%
implantations (%) ([2]; 100 nM): 66.7%
placentas only (%) ([2]; 100 nM): 16.7%
EU fluorescence intensity / effect on ZGA at the two-cell stage [3]: no adverse effects on ZGA
No. of two-cell embryos at 24 h ([4]; 0.5 nM, 8 h treatment, Table 2): 251
two-cell embryos at 24 h (%) ([4]; 0.5 nM, 8 h treatment, Table 2): 87.2%
No. of two-cell embryos at 24 h ([4]; 1 nM, 8 h treatment, Table 2): 190
two-cell embryos at 24 h (%) ([4]; 1 nM, 8 h treatment, Table 2): 76.9%
No. of four-cell embryos at 48 h ([4]; 5 nM, 8 h treatment, Table 1): 89
No. of morula/blast at 72 h ([4]; 5 nM, 8 h treatment, Table 1): 61
No. of two-cell embryos at 24 h ([4]; 5 nM, 8 h treatment, Table 1): 106
four-cell embryos at 48 h (% per 2 cells) ([4]; 5 nM, 8 h treatment, Table 1): 84.0%
morula/blast at 72 h (% per 2 cells) ([4]; 5 nM, 8 h treatment, Table 1): 57.5%
two-cell embryos at 24 h (%) ([4]; 5 nM, 8 h treatment, Table 1): 93.8%
No. of two-cell embryos at 24 h ([4]; 5 nM, 8 h treatment, Table 2): 66
two-cell embryos at 24 h (%) ([4]; 5 nM, 8 h treatment, Table 2): 90.4%
No. of four-cell embryos at 48 h ([4]; 100 nM, 8 h treatment, Table 1): 27
No. of morula/blast at 72 h ([4]; 100 nM, 8 h treatment, Table 1): 6
No. of two-cell embryos at 24 h ([4]; 100 nM, 8 h treatment, Table 1): 58
four-cell embryos at 48 h (% per 2 cells) ([4]; 100 nM, 8 h treatment, Table 1): 46.6%
morula/blast at 72 h (% per 2 cells) ([4]; 100 nM, 8 h treatment, Table 1): 10.3%
two-cell embryos at 24 h (%) ([4]; 100 nM, 8 h treatment, Table 1): 84.0%
developmental block / embryotoxicity in SCNT-derived embryos (in words) ([4]; treatment at the one-cell stage): embryonic toxicity; also recorded: moderate two-cell developmental block
Body weight at term (g ± SD) [5]: 1.61 ± 0.21 g
Placental weight at term (g ± SD) [5]: 0.31 ± 0.05 g

CC(/C=C/C(=O)NO)=C\[C@@H](C)C(=O)c1ccc(N(C)C)cc1 [TSA, trichostatin A, reference compound]
No. of implantations ([1]; 5 nM): 69
No. of offspring ([1]; 5 nM): 8
No. of placentas only ([1]; 5 nM): 3
implantations (%) ([1]; 5 nM): 63.3%
offspring (%) ([1]; 5 nM): 7.3%
placentas only (%) ([1]; 5 nM): 2.8%
pup rates (birth rates of clones), range over both transfer series ([1]; morula/blastocyst and two-cell transfer experiments): 6.7–7.3%
No. of cloned offspring ([2]; 5 nM): 1
No. of implantations ([2]; 5 nM): 6
No. of placentas only ([2]; 5 nM): 0 (0)
cloned offspring (%) ([2]; 5 nM): 6.7%
implantations (%) ([2]; 5 nM): 40.0%
placentas only (%) ([2]; 5 nM): 0 (0) %
pup rates per embryos transferred ([6]; mouse SCNT-derived embryos): more than 5%
EU fluorescence intensity / effect on ZGA at the two-cell stage [3]: no adverse effects on ZGA
No. of four-cell embryos at 48 h ([4]; 5 nM, 8 h treatment, Table 1): 45
No. of morula/blast at 72 h ([4]; 5 nM, 8 h treatment, Table 1): 32
No. of two-cell embryos at 24 h ([4]; 5 nM, 8 h treatment, Table 1): 49
four-cell embryos at 48 h (% per 2 cells) ([4]; 5 nM, 8 h treatment, Table 1): 91.8%
morula/blast at 72 h (% per 2 cells) ([4]; 5 nM, 8 h treatment, Table 1): 65.3%
two-cell embryos at 24 h (%) ([4]; 5 nM, 8 h treatment, Table 1): 76.5%
No. of two-cell embryos at 24 h ([4]; 5 nM, 8 h treatment, Table 2): 133
two-cell embryos at 24 h (%) ([4]; 5 nM, 8 h treatment, Table 2): 86.9%
Blastocysts at 96 h (% per two cells) [4, 7]: 68.2%
Morulae at 96 h (% per two cells) [4, 7]: 0 (0) %
No. of embryos at 96 h, Blastocysts [4, 7]: 15
No. of embryos at 96 h, Morulae [4, 7]: 0 (0)
No. of four-cell embryos at 48 h [4, 7]: 19
No. of two-cell embryos at 24 h [4, 7]: 22
four-cell embryos at 48 h (% per two cells) [4, 7]: 86.4%
two-cell embryos at 24 h (%) [4, 7]: 100%
Body weight at term (g ± SD) [5]: 1.57 ± 0.15 g
Placental weight at term (g ± SD) [5]: 0.28 ± 0.07 g

CCCC(CCC)C(=O)O [VPA, valproic acid]
effect on mouse SCNT [6]: no effect
